Results from patent publication US12268727B2, “Bioactive polypeptides for improvements in plant protection, growth and productivity” (priority 2017, dated 2025).
Non-standard residues stand in square brackets, D forms with d. No end group written: not given here. sY = N[C@@H](Cc1ccc(OS(=O)(=O)O)cc1)C(=O)O

Tests used:
[1] = system: Agrobacterium tumefaciens strain GV3101; test: Growth of Agrobacterium tumefaciens culture (OD 600); format: cell-based; settings: 10.0%, 2.0%, 0.40%, 0.08%, 0.02%
Experimental: Agrobacterium tumefaciens strain GV3101 was inoculated into Luria broth medium (LB) and grown for 20 hours. Initially the optical density (OD) of the culture was measured at a wavelength of 600 nm using a spectrophotometer and normalized to a low starting density. The cultures were then divided equally and treated with similar proportions of thionins that are representative of mixtures used to treat citrus trees. The ratios of Cs.thionin (SEQ ID NO: 651), As.thionin (SEQ ID NO: 652) and Mt.thionin (SEQ ID NO: 653) used were 10.0%, 2.0%, 0.40%, 0.08%, and 0.02% and were prepared to match the 20 mL total volume of filtrate of each of the thionin mixtures that is used as a treatment per tree. Each thionin mixture was also compared to control mixtures containing only: filtrate, minimal media (LB), or a tetracycline (Tet) antibiotic (10 μg/mL per culture). Each bar represents a combined OD measure of 3 replicates. After incubation with the thionin and antibiotic mixtures, the optical density (OD 600) was measured again to determine if growth of the Agrobacterium cultures was reduced or inhibited.

soybean [2] = test: Foliar application to soybean, field yield trials; format: in vivo; settings: for Average Bu/Ac Increase compared to Control Variety 1 and 2 / Average Total Yield Bu/Ac Variety 1 and 2 / Average Total Yield Bu/Ac Variety 2: foliar at R2, 7 US Midwest locations; for Average Total Yield Bu/Ac Variety 2: AG3536
soybean [3] = test: Foliar application to soybean, field yield trials; format: in vivo; settings: foliar at R2, AG2836, 7 US Midwest locations
[4] = system: reactive oxygen species (ROS) production in soybean leaf tissue; test: ROS activity assay in soybean leaf tissue (luminol/horseradish peroxidase, RLU); format: cell-based; settings: Table 33; 100 nM polypeptide; RLU relative to native Bt.4Q7Flg22 = 100
[5] = system: Pseudomonas syringae pv. actinidiae (PSA-V); test: PSA-V leaf spot in potted kiwi plants; format: in vivo
[6] = system: reactive oxygen species (ROS) production in corn tissue; test: ROS activity assay in corn tissue (luminol/horseradish peroxidase, RLU); settings: Table 33; 5 nM polypeptide; RLU relative to native Bt.4Q7Flg22 = 100
[7] = system: reactive oxygen species (ROS) production in Kiwi 'Hayward' leaf petioles; test: ROS activity assay in kiwi leaf petioles; format: cell-based, Actinidiae deliciosa; settings: 100 nM peptide
Experimental: To test the sensitivity of kiwi leaves to 22-amino acid fragments of flagellin, 1 mm slices were cut through Actinidiae deliciosa Kiwi ‘Hayward’ leaf petioles and floated in 150 μL of water in a 96-well plate, with one slice per well. […] In two independent experiments, a total of 6 kiwi leaf petiole samples were treated with each Flg22 polypeptide in Table 94. The average total RLU and standard error of the means (SEM) was calculated for each treatment. A two-tailed T-test was used to determine significance at the 90% confidence level (P<0.1) between treatments. Relative ROS production was determined for each polypeptide in comparison to total RLUs for the 100 nM Bt.4Q7Flg22 control.

corn [8] = format: in vivo
soybean [9] = test: Foliar application to soybean in growth room, plant height (non-stress, heat and water deficit stress); format: in vivo
Experimental: Ec.Flg22 (SEQ ID NO: 527) was applied to soybean (Beck's 297NR).
Plant height (cm) was measured just prior to the foliar application delivered at 3 weeks and then again 2 weeks later when the plants were 5-weeks-old. Two replicate trials were conducted using 18 plants per trial.
Soybean plants were grown as described in Example 6. The At.PSKα polypeptide (SEQ ID NO: 598) was applied as a foliar spray to the plants at the V1-V4 stage. Soybean plants treated with foliar applications of At.PSKα and control plants treated with water and surfactant alone were then grown in conditions described in Examples 7-9 that produced a non-stress and stress (heat and water deficit) environments. Table 37 describes the percentage change or increase in height reported for soybean plants treated with At.PSKα as a foliar spray at the V1-V4 growth stage.
RHPP bioactive priming polypeptide (SEQ ID NO: 600) was also applied as foliar treatment to R1 stage hybrid soybean (Beck's 297R4) with 0.1% (v/v) non-ionic surfactant ([…] SURFACE) using a spray bottle delivering approximately 1.2 ml/plant. This experiment was performed to look at the effects of RHPP on plant growth and was conducted using a total of 18 plants per treatment group. […] R1 stage soybean plants were treated with nothing (non-treated control), […] SURFACE surfactant applied at a concentration of 0.1% (v/v) or the RHPP polypeptide (300 nM) applied in combination with […] SURFACE surfactant (0.1% v/v). Height for each plant was recorded at the time of spray and again at 16 days post foliar application and average growth parameters were compared between foliar treatments (Table 39).

corn [10] = test: Foliar application to corn in growth room, plant height (non-stress, heat and water deficit stress)
[11] = system: Candidatus Liberibacter asiaticus; settings: in vivo

Cs.thionin: thionin polypeptide, applied as filtrate (RVCQSQSHHFHGACFSHHNCAFVCRNEGFSGGKCRGVRRRCFCSKLC; applied as filtrate; listed as Citrus sinensis)
growth of Agrobacterium cultures vs filtrate, LB or Tet controls [1]: dose dependent response and decreased growth

Gm RHPP (GGIRAAPTGNER; Glycine max)
Average Bu/Ac Increase compared to Control Variety 1 and 2 (soybean [2]; use rate 4.0 Fl. oz/Ac): +1.26 Bu/Ac
Average Total Yield Bu/Ac Variety 1 and 2 (soybean [2]; use rate 4.0 Fl. oz/Ac): 61.83 Bu/Ac
Average Bu/Ac Increase compared to Control Variety 1 and 2 (soybean [2]; use rate 8.0 Fl. oz/Ac): +0.51 Bu/Ac
Average Total Yield Bu/Ac Variety 1 and 2 (soybean [2]; use rate 8.0 Fl. oz/Ac): 61.08 Bu/Ac
Average Total Yield Bu/Ac Variety 2 (soybean [2]; use rate 4.0 Fl. oz/Ac): 66.35 Bu/Ac
Average Total Yield Bu/Ac Variety 2 (soybean [2]; use rate 8.0 Fl. oz/Ac): 62.46 Bu/Ac
Average Total Yield Bu/Ac Variety 1 (soybean [3]; use rate 4.0 Fl. oz/Ac): 58.61 Bu/Ac
Average Total Yield Bu/Ac Variety 1 (soybean [3]; use rate 8.0 Fl. oz/Ac): 59.47 Bu/Ac

Mt.thionin: thionin polypeptide, applied as filtrate (RTCESQSHRFKGPCSRDSNCATVCLTEGFSGGDCRGFRRRCRCTRPCVFDEK; applied as filtrate)
growth of Agrobacterium cultures vs filtrate, LB or Tet controls [1]: dose dependent response and decreased growth

TRLSSGLKINSAKDDAAGLQIA (listed as Pseudomonas syringae) [Flg22-PSA, Flg22 from Pseudomonas syringae pv. actinidiae]
Avg. Activity (%) Soybean (297 R4) 100 nM polypeptide [4]: 113.1%
PSA-V leaf spot symptoms vs untreated control ([5]; 6, 16 and 23 DAI): significantly reduced PSA-V leaf spot symptoms
less leaf spot compared to untreated control ([5]; combination with Flg22-PSA pre-treatment (partner not given), 29 DAI): 14.3%
Avg. Activity (%) Corn (5828 YX) 5 nM polypeptide [6]: 154.4%
Average Total Relative Light Units (RLUs); SEM in parentheses ([7]; Kiwi 'Hayward' leaf petiole slices, 40 minutes time course): 124,550 RLU
ROS production relative to Bt4Q7Flg22 (%) ([7]; Kiwi 'Hayward' leaf petioles): 262%

Tyr(SO3H)-I-Tyr(SO3H)-TQ ([sY]I[sY]TQ; listed as Arabidopsis thaliana) [At.PSKα]
Bu/Ac Foliar Corn (yield increase) (corn [8]; 1 μM foliar spray with surfactant at V5-V8, corn hybrid 5140RR, vs water control): 3.0 Bu/Ac
yield increase (corn [8]; foliar 1 μM, V5-V8, hybrid 5140RR, one location): 3 Bu/Ac
increase in height vs control (soybean [9]; foliar at V1-V4, non-stress environment): 3.5%
increase in height vs control (soybean [9]; foliar at V1-V4, stress (heat and water deficit) environment): 4.3%
Percentage (%) change in Height in Stress Environment Soybean with At.PSKα over control (soybean [9]; foliar spray at V1-V4, heat and water deficit stress): 4.3%
Percentage (%) change in Height in Non-Stress Environment Soybean with At.PSKα over control (soybean [9]; foliar spray at V1-V4, non-stress): 3.5%
Bu/Ac Foliar Soybean (yield increase) (soybean [2]; 1 μM foliar spray with surfactant at V1-V4, soybean hybrid 375 NR, vs water control): 0.8 Bu/Ac
yield increase (soybean [2]; foliar 1 μM, V1-V4, hybrid 375 NR, one location): 0.8 Bu/Ac
Plant Height Normalized as a percentage of control height Non-stress (corn [10]; 5 weeks, control surfactant 0.01% v/v, HpaG-like 1 μM, At.PSKα 100 nM): 98.2%
Plant Height Normalized as a percentage of control height Stress (corn [10]; 5 weeks, heat and water deficit stress, control surfactant 0.01% v/v, HpaG-like 1 μM, At.PSKα 100 nM): 107.8%
growth phenotype vs control (corn [10]; foliar (HpaG-like 1 μM, PSKα), heat and water deficit stress): improved growth phenotype
Height (cm) after stress 5 weeks (corn [10]; heat and water deficit stress, HpaG-like 1 μM, At.PSKα 100 nM foliar): 54.88 cm
Height (cm) after non-stress 5 weeks (corn [10]; non-stress growth room, HpaG-like 1 μM, At.PSKα 100 nM foliar): 58.62 cm

thionin tagged: thionin polypeptide comprising a phloem localization sequence (printed SEQ ID NO: 650) (RTCESQSHRFKGPCSRDSNCATVCLTEGFSGGDCRGFRRRCRCTRPCVFDEK)
Ct values vs control trees [11]: higher average Ct values
average Ct value vs un-tagged thionin [11]: higher average Ct value at T56
